Test results as given in PMC9856672, “SGC-CAMKK2-1: A Chemical Probe for CAMKK2” (Cells, 2023).

Key:
ACVR2B = target: T1, ACVR2B (Homo sapiens, UniProt Q13705); test: KINOMEscan 1 μM, ACVR2B; format: binding; conditions: 1000 nM; Entrez ACVR2B; read-out: Percent Control
T1 construct: purchased Eurofins DiscoverX KINOMEscan
Source text: (§1) Supplement cells-12-00287-s001.zip/File S2. KinomeScan data for the CAMKK2 probe and negative control.xlsx, sheet "SGC-CAMKK2-1" | column: Percent Control

CAMK1G = target: T2, CAMK1G (Homo sapiens, UniProt Q96NX5); test: KINOMEscan 1 μM, CAMK1G; format: binding; conditions: 1000 nM; Entrez CAMK1G; read-out: Percent Control
T2 construct: purchased Eurofins DiscoverX KINOMEscan
Source text: as §1

PIK3CG = target: T3, PIK3CG (Homo sapiens, UniProt P48736); test: KINOMEscan 1 μM, PIK3CG; format: binding; conditions: 1000 nM; Entrez PIK3CG; read-out: Percent Control
T3 construct: purchased Eurofins DiscoverX KINOMEscan
Source text: as §1

NLK = target: T4, NLK (Homo sapiens, UniProt Q9UBE8); test: KINOMEscan 1 μM, NLK; format: binding; conditions: 1000 nM; Entrez NLK; read-out: Percent Control
T4 construct: purchased Eurofins DiscoverX KINOMEscan
T4 sequence (Q9UBE8 whole entry): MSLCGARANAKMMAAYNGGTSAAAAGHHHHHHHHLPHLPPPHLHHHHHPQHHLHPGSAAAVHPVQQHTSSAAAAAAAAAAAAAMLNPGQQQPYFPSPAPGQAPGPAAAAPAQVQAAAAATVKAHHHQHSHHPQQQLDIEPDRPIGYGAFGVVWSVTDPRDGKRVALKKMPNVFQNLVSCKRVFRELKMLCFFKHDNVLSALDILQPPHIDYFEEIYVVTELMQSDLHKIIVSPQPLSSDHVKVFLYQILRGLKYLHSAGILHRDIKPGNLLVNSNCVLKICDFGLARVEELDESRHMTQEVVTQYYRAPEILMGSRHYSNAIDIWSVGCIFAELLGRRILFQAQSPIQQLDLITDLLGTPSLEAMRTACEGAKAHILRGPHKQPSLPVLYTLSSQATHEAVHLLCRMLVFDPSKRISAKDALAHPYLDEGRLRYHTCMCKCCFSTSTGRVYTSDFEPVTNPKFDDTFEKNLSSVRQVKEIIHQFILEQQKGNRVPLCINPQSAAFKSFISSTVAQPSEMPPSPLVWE
Source text: as §1

PIK3C2G = target: T5, PIK3C2G (Homo sapiens, UniProt O75747); test: KINOMEscan 1 μM, PIK3C2G; format: binding; conditions: 1000 nM; Entrez PIK3C2G; read-out: Percent Control
T5 construct: purchased Eurofins DiscoverX KINOMEscan
T5 sequence (O75747 whole entry): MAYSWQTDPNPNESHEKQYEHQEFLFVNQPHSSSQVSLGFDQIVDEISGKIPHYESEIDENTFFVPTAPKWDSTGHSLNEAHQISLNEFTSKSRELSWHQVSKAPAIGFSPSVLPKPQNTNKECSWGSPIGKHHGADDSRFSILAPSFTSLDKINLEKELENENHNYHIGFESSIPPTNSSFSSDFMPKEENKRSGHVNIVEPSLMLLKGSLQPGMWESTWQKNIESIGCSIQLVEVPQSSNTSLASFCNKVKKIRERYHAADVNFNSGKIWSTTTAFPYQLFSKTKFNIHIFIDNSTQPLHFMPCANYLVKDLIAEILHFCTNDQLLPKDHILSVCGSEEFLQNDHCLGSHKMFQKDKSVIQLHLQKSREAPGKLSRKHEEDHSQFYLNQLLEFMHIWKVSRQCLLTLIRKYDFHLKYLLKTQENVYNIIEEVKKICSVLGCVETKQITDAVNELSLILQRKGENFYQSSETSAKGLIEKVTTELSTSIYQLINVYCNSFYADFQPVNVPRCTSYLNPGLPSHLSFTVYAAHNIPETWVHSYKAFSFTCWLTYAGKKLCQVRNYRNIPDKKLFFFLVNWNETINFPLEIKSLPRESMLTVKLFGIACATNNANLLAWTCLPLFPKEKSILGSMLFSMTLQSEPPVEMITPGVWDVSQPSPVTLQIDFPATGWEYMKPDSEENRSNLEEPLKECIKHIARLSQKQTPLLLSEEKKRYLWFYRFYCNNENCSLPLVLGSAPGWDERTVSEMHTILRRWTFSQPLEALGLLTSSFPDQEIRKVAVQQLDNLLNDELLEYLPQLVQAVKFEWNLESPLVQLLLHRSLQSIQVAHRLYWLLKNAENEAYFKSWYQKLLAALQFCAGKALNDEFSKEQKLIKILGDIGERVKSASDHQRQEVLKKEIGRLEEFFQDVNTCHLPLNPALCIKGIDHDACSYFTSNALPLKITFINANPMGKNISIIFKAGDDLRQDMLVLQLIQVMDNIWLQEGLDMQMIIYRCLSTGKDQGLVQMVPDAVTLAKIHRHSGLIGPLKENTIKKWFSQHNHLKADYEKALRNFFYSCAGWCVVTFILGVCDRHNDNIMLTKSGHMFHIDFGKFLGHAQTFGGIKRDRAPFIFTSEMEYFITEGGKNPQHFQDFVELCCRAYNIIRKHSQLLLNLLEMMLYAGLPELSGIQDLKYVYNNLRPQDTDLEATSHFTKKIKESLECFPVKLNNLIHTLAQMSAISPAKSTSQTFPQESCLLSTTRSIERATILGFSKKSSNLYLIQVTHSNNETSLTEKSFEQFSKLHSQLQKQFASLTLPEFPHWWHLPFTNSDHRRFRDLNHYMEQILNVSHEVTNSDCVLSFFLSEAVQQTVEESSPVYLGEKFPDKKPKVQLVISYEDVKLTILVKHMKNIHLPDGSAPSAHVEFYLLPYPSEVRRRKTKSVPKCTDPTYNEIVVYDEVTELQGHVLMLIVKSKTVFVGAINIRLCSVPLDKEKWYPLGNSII
Source text: as §1

ROS1 = target: T6, ROS1 (Homo sapiens, UniProt P08922); test: KINOMEscan 1 μM, ROS1; format: binding; conditions: 1000 nM; Entrez ROS1; read-out: Percent Control
T6 construct: purchased Eurofins DiscoverX KINOMEscan
Source text: as §1

CSNK1G2 = target: T7, CSNK1G2 (Homo sapiens, UniProt P78368); test: KINOMEscan 1 μM, CSNK1G2; format: binding; conditions: 1000 nM; Entrez CSNK1G2; read-out: Percent Control
T7 construct: purchased Eurofins DiscoverX KINOMEscan
Source text: as §1

STK36 = target: T8, STK36 (Homo sapiens, UniProt Q9NRP7); test: KINOMEscan 1 μM, STK36; format: binding; conditions: 1000 nM; Entrez STK36; read-out: Percent Control
T8 construct: purchased Eurofins DiscoverX KINOMEscan
Source text: as §1

DAPK2 = target: T9, DAPK2 (Homo sapiens, UniProt Q9UIK4); test: KINOMEscan 1 μM, DAPK2; format: binding; conditions: 1000 nM; Entrez DAPK2; read-out: Percent Control
T9 construct: purchased Eurofins DiscoverX KINOMEscan
Source text: as §1

[1] = target: T10, ABL1(F317L)-phosphorylated (Homo sapiens, UniProt P00519, F317L); test: KINOMEscan 1 μM, ABL1(F317L)-phosphorylated; format: binding; conditions: 1000 nM; Entrez ABL1; read-out: Percent Control
T10 construct: purchased Eurofins DiscoverX KINOMEscan
Source text: as §1

ERK1 = target: T11, ERK1 (Homo sapiens, UniProt P27361); test: KINOMEscan 1 μM, ERK1; format: binding; conditions: 1000 nM; Entrez MAPK3; read-out: Percent Control
T11 construct: purchased Eurofins DiscoverX KINOMEscan
T11 sequence (P27361 whole entry): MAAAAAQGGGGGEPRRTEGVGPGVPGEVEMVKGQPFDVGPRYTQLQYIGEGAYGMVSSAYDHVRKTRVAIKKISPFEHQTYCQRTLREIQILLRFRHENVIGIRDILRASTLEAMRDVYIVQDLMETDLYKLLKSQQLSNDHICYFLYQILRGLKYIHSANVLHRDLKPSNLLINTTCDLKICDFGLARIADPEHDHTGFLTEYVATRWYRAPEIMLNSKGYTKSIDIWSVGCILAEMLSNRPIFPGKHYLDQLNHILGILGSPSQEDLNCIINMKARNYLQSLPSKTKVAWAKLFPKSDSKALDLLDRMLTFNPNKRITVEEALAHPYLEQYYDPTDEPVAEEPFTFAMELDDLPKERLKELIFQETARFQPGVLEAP
Source text: as §1

FLT3(ITD) [2] = test: KINOMEscan 1 μM, FLT3(ITD); format: binding, human; conditions: 1000 nM; Entrez FLT3
Source text: as §1

MRCKA = target: T12, MRCKA (Homo sapiens, UniProt Q5VT25); test: KINOMEscan 1 μM, MRCKA; format: binding; conditions: 1000 nM; Entrez CDC42BPA; read-out: Percent Control
T12 construct: purchased Eurofins DiscoverX KINOMEscan
Source text: as §1

NEK11 = target: T13, NEK11 (Homo sapiens, UniProt Q8NG66); test: KINOMEscan 1 μM, NEK11; format: binding; conditions: 1000 nM; Entrez NEK11; read-out: Percent Control
T13 construct: purchased Eurofins DiscoverX KINOMEscan
Source text: as §1

ROCK1 = target: T14, ROCK1 (Homo sapiens, UniProt Q13464); test: DiscoverX KINOMEscan binding assay at 1 μM, ROCK1; conditions: Compound Concentration 1000 nM, read-out: Percent Control
T14 construct: purchased Eurofins DiscoverX KINOMEscan
Source text: as §1

ROCK2 = target: T15, ROCK2 (Homo sapiens, UniProt O75116); test: DiscoverX KINOMEscan binding assay at 1 μM, ROCK2; conditions: Compound Concentration 1000 nM, read-out: Percent Control
T15 construct: purchased Eurofins DiscoverX KINOMEscan
Source text: as §1

SRPK2 = target: T16, SRPK2 (Homo sapiens, UniProt P78362); test: DiscoverX KINOMEscan binding assay at 1 μM, SRPK2; conditions: Compound Concentration 1000 nM, read-out: Percent Control
T16 construct: purchased Eurofins DiscoverX KINOMEscan
Source text: as §1

CDKL3 = target: T17, CDKL3 (Homo sapiens, UniProt Q8IVW4); test: KINOMEscan at 1 μM, CDKL3; format: binding; conditions: 1000 nM, read-out: Percent Control
T17 construct: purchased Eurofins DiscoverX KINOMEscan
Source text: (§2) Supplement cells-12-00287-s001.zip/File S2. KinomeScan data for the CAMKK2 probe and negative control.xlsx, sheet "SGC-CAMKK2-1N" | column: Percent Control

ULK2 = target: T18, ULK2 (Homo sapiens, UniProt Q8IYT8); test: KINOMEscan at 1 μM, ULK2; format: binding; conditions: 1000 nM, read-out: Percent Control
T18 construct: purchased Eurofins DiscoverX KINOMEscan
Source text: as §2

PAK2 = target: T19, PAK2 (Homo sapiens, UniProt Q13177); test: KINOMEscan at 1 μM, PAK2; format: binding; conditions: 1000 nM, read-out: Percent Control
T19 construct: purchased Eurofins DiscoverX KINOMEscan
Source text: as §2

PLK1 = target: T20, PLK1 (Homo sapiens, UniProt P53350); test: KINOMEscan at 1 μM, PLK1; format: binding; conditions: 1000 nM, read-out: Percent Control
T20 construct: purchased Eurofins DiscoverX KINOMEscan
Source text: as §2

PRKG2 = target: T21, PRKG2 (Homo sapiens, UniProt Q13237); test: KINOMEscan at 1 μM, PRKG2; format: binding; conditions: 1000 nM, read-out: Percent Control
T21 construct: purchased Eurofins DiscoverX KINOMEscan
Source text: as §2

FLT3(ITD) [3] = test: KINOMEscan at 1 μM, FLT3(ITD); format: binding, human; conditions: 1000 nM
Source text: as §2

[4] = target: T22, ABL1(T315I)-phosphorylated (Homo sapiens, UniProt P00519, T315I); test: KINOMEscan at 1 μM, ABL1(T315I)-phosphorylated; format: binding; conditions: 1000 nM, read-out: Percent Control
T22 construct: purchased Eurofins DiscoverX KINOMEscan
Source text: as §2

PIP5K1A = target: T23, PIP5K1A (Homo sapiens, UniProt Q99755); test: KINOMEscan at 1 μM, PIP5K1A; format: binding; conditions: 1000 nM, read-out: Percent Control
T23 construct: purchased Eurofins DiscoverX KINOMEscan
T23 sequence (Q99755 whole entry): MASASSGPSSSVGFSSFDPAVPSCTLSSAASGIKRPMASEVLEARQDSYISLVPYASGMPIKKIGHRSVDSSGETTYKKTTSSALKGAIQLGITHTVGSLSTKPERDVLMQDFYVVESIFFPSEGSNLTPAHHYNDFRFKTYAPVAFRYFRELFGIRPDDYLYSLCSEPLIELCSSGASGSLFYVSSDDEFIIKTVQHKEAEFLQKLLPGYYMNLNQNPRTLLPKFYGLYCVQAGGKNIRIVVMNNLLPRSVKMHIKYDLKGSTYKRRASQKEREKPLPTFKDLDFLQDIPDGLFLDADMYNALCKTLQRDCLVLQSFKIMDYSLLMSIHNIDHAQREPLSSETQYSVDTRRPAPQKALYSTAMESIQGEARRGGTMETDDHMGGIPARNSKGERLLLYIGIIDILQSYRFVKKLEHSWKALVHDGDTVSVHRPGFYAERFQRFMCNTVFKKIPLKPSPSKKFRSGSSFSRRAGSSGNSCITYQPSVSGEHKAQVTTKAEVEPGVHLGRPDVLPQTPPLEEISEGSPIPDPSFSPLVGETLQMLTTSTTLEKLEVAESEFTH
Source text: as §2

KIT(V559D,V654A) = target: T24, KIT(V559D,V654A) (Homo sapiens, UniProt P10721, V559D/V654A); test: KINOMEscan at 1 μM, KIT(V559D,V654A); format: binding; conditions: 1000 nM, read-out: Percent Control
T24 construct: purchased Eurofins DiscoverX KINOMEscan
Source text: as §2

PDGFRB = target: T25, PDGFRB (Homo sapiens, UniProt P09619); test: KINOMEscan at 1 μM, PDGFRB; format: binding; conditions: 1000 nM, read-out: Percent Control
T25 construct: purchased Eurofins DiscoverX KINOMEscan
Source text: as §2

[5] = target: T26, RSK1(Kin.Dom.2-C-terminal) (Homo sapiens, UniProt Q15418); test: KINOMEscan at 1 μM, RSK1(Kin.Dom.2-C-terminal); format: binding; conditions: 1000 nM, read-out: Percent Control
T26 construct: RSK1(Kin.Dom.2-C-terminal); purchased Eurofins DiscoverX KINOMEscan
T26 sequence (Q15418 392-735 limits assumed): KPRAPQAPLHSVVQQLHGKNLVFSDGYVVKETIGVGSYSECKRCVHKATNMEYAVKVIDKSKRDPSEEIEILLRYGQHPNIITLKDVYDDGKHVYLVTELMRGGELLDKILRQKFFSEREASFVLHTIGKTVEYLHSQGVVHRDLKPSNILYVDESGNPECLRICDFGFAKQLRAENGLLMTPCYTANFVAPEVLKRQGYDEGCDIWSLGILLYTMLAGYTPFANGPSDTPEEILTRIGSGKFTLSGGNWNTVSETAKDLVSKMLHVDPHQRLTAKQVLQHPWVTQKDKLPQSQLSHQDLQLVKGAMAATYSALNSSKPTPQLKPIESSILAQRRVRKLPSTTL
Source text: as §2

BRK = target: T27, BRK (Homo sapiens, UniProt Q13882); test: KINOMEscan at 1 μM, BRK; format: binding; conditions: 1000 nM, read-out: Percent Control
T27 construct: purchased Eurofins DiscoverX KINOMEscan
Source text: as §2

NEK2 = target: T28, NEK2 (Homo sapiens, UniProt P51955); test: KINOMEscan at 1 μM, NEK2; format: binding; conditions: 1000 nM, read-out: Percent Control
T28 construct: purchased Eurofins DiscoverX KINOMEscan
Source text: as §2

DAPK1 = target: T29, DAPK1 (Homo sapiens, UniProt P53355); test: KINOMEscan at 1 μM, DAPK1; format: binding; conditions: 1000 nM, read-out: Percent Control
T29 construct: purchased Eurofins DiscoverX KINOMEscan
Source text: as §2

HCK = target: T30, HCK (Homo sapiens, UniProt P08631); test: KINOMEscan binding assay at 1 μM, HCK; conditions: Compound Concentration 1000 nM; read-out: Percent Control
T30 construct: purchased Eurofins DiscoverX KINOMEscan
Source text: as §2

MARK4 = target: T31, MARK4 (Homo sapiens, UniProt Q96L34); test: KINOMEscan binding assay at 1 μM, MARK4; conditions: Compound Concentration 1000 nM; read-out: Percent Control
T31 construct: purchased Eurofins DiscoverX KINOMEscan
Source text: as §2

PIK3CD = target: T32, PIK3CD (Homo sapiens, UniProt O00329); test: KINOMEscan binding assay at 1 μM, PIK3CD; conditions: Compound Concentration 1000 nM; read-out: Percent Control
T32 construct: purchased Eurofins DiscoverX KINOMEscan
T32 sequence (O00329 whole entry): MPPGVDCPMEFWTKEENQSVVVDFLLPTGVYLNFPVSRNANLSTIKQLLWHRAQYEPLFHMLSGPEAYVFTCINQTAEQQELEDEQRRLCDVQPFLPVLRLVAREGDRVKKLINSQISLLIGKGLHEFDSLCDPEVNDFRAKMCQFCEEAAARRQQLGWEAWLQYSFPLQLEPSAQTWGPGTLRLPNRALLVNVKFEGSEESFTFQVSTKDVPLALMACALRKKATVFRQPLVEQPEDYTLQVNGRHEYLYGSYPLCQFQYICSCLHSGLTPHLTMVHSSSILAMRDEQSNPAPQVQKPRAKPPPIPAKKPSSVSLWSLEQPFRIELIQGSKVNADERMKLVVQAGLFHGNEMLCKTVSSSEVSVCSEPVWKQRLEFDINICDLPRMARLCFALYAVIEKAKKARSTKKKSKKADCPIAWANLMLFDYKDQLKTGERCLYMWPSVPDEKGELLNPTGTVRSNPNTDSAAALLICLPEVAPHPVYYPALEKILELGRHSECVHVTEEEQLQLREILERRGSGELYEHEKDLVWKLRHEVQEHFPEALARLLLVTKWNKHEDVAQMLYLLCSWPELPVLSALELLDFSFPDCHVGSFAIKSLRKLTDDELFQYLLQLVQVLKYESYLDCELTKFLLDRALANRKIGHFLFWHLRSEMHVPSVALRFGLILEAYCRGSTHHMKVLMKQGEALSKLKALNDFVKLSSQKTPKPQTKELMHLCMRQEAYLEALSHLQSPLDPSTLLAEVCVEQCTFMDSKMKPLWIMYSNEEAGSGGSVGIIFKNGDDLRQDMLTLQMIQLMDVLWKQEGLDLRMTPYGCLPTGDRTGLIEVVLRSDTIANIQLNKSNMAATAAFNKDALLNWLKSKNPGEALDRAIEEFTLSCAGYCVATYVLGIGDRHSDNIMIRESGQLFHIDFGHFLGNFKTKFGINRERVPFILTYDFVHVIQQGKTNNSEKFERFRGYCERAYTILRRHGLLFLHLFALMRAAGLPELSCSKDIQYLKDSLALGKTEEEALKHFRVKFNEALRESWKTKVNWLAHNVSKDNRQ
Source text: as §2

T1 sequence (Q13705 19-512): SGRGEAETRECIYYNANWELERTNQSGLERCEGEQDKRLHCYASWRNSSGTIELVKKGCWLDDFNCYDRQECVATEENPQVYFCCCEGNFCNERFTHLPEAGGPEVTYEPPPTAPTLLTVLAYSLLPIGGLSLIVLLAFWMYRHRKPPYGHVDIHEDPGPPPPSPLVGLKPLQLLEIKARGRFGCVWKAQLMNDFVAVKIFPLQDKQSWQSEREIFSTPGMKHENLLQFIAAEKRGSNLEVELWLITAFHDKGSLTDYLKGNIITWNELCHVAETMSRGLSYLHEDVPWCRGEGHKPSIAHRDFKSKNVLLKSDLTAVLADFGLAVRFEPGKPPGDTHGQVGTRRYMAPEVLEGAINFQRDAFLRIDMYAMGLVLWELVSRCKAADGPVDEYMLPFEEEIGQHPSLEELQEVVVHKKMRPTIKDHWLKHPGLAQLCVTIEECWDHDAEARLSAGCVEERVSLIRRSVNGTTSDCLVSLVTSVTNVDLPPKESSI

Question: Which results are given for Cc1cccc(-c2cnc3occ(-c4ccc(C(=O)O)c(C5CCCC5)c4)c3c2)c1 [SGC-CAMKK2-1 (YL-36)]?
Answer: remaining binding at 1 µM (ACVR2B): 43%; remaining binding at 1 µM (CAMK1G): 54%; remaining binding at 1 µM (PIK3CG): 76%; remaining binding at 1 µM (NLK): 81%; remaining binding at 1 µM (PIK3C2G): 81%; remaining binding at 1 µM (ROS1): 84%; remaining binding at 1 µM (CSNK1G2): 88%; remaining binding at 1 µM (STK36): 89%; remaining binding at 1 µM (DAPK2): 94%; remaining binding at 1 µM [1]: 100%; remaining binding at 1 µM (ERK1): 100%; Percent Control (FLT3(ITD) [2]): 100%; remaining binding at 1 µM (MRCKA): 100%; remaining binding at 1 µM (NEK11): 100%; remaining binding at 1 µM (ROCK1): 100%; remaining binding at 1 µM (ROCK2): 100%; remaining binding at 1 µM (SRPK2): 100%

Question: How did the remaining binding at 1 µM (CDKL3) turn out when O=C(O)c1ccc(-c2coc3ncc(-c4ccccc4)cc23)cc1Cl [SGC-CAMKK2-1N (UNC-YL-83)] was run?
Answer: 63%

Question: What about the remaining binding at 1 µM (ULK2) of the same molecule?
Answer: 71%

Question: What about the remaining binding at 1 µM (PAK2) of the same molecule?
Answer: 78%

Question: And the remaining binding at 1 µM (PLK1)?
Answer: 79%

Question: What about the remaining binding at 1 µM (PRKG2) of the same molecule?
Answer: 80%

Question: What about the “Percent Control” value (FLT3(ITD) [3]) of the same molecule?
Answer: 81

Question: And the remaining binding at 1 µM [4]?
Answer: 84%

Question: And the remaining binding at 1 µM (PIP5K1A)?
Answer: 87%

Question: And the remaining binding at 1 µM (KIT(V559D,V654A))?
Answer: 92%

Question: What about the remaining binding at 1 µM (PDGFRB) of the same molecule?
Answer: 92%

Question: What about the remaining binding at 1 µM [5] of the same molecule?
Answer: 94%

Question: And the remaining binding at 1 µM (BRK)?
Answer: 96%

Question: What about the remaining binding at 1 µM (NEK2) of the same molecule?
Answer: 97%

Question: What about the remaining binding at 1 µM (DAPK1) of the same molecule?
Answer: 100%

Question: What about the remaining binding at 1 µM (HCK) of the same molecule?
Answer: 100%

Question: And the remaining binding at 1 µM (MARK4)?
Answer: 100%

Question: And the remaining binding at 1 µM (PIK3CD)?
Answer: 100%
